Assay results taken from article PMC9412534, “Diindolylmethane Derivatives: New Selective Blockers for T-Type Calcium Channels” (Membranes, 2022).
Entries after “also recorded” stand apart in the source; their conditions may differ.

Key:
[1] = target: T1, recombinant hCaV3.1 channels (Homo sapiens, UniProt O43497); assay: Whole-cell patch-clamp (QPatch), CaV3.1; format: cell-based; settings: for IC50: whole-cell current, holding potential −90 mV, n = 3–5
T1 construct: host or cells: probably the CHO cell line expressing CaV3.1 (inferred: transient HEK293T cells are assigned to FLIPR only)
Description: (§1) The human embryonic kidney 293 (HEK 293) cell lines (from Emmanuel Bourinet, Montpellier, France) stably expressing CaV3.2 or CaV3.3 were cultured under 5% carbon dioxide at 37 °C in Dulbecco’s Modified Eagle Medium (DMEM) Glutamax (Gibco, Life Technologies, Carlsbad, CA, USA) supplemented with 10% (v/v) fetal bovine serum (FBS), 100 U/mL penicillin, 100 μg/mL streptomycin (Gibco, Life Technologies, Carlsbad, CA, USA), and 750 μg/mL geneticin (G418) (Gibco, Life Technologies). The Chinese Hamster Ovary (CHO) cell lines (Emmanuel Bourinet, Montpellier, France) expressing CaV3.1 were cultured under 5% carbon dioxide at 37 °C in Alpha Minimum Essential Media (MEM) Glutamax (Gibco, Life Technologies), supplemented with 10% (v/v) fetal bovine serum (FBS) and 300 μg/mL geneticin (G418) (Gibco, Life Technologies). The human neuroblastoma SH-SY5Y cells (Victor Diaz, Goettingen, Germany) were cultured under 5% carbon dioxide at 37 °C in RPMI 1640 antibiotic-free medium (Invitrogen, Carlsbad, CA, USA), supplemented with 15% FBS and 2 mM GlutaMAX™ (Invitrogen). D-PBS (Gibco, Life Technologies) was used to wash the cells, and 0.25% Trypsin-EDTA (Gibco, Life Technologies) was used to detach cells from the flask surface. They were split in a ratio of 1:5 (ideally 1000 cells/cm^2) when they reached 70–80% confluence (every 2–3 days). Transiently transfected CaV3.1 HEK293 T cells were used in FLIPR Assays. HEK 293 T cells were cultured under 5% carbon dioxide at 37 °C in DMEM supplemented with 10% (v/v) FBS. D-PBS was used to wash the cells, and 0.25% Trypsin-EDTA was used to detach cells from the flask surface. The cells were split and seeded at 6 million cells per T175 flask, to reach 70–80% confluence after 24 h. The next day, 12 μg DNA of human CaV3.1 was incubated in 900 μL serum-free DMEM with 36 μL FuGENE HD transfection reagent (Promega Corporation, Madison, WI, USA) (1:3 DNA/Fugene ratio) for 20 min, and then the mixture was added into the cell flask slowly, drop by drop. After the transfection, the cells were cultured under 5% carbon dioxide at 37 °C for 24 h and then moved to a 28 °C incubator.
(§2) Whole-cell patch-clamp experiments were performed on an automated electrophysiology platform QPatch 16 X (Sophion Bioscience A/S, Ballerup, Denmark) in single-hole configuration using 16-channel planar patch chip QPlates (Sophion Bioscience A/S). The extracellular recording solution contained, in mM: TEACl 157, MgCl2 0.5, CaCl2 5, and HEPES 10; pH 7.4 adjusted with TEAOH; and osmolarity 320 mOsm. The intracellular pipette solution contained, in mM: CsF 140, EGTA 1, HEPES 10, and NaCl 10; pH 7.2 adjusted with CsOH; and osmolarity 325 mOsm. Compounds were diluted in extracellular recording solution with 0.1% BSA at the concentrations stated (DMSO ≤ 0.1%), and the effects of compounds were compared to the control (extracellular solution with 0.1% BSA) parameters within the same cell. Compounds’ incubation time varied from two (for the highest concentration) to five (for the lowest concentration) minutes by applying the voltage protocol 10–30 times at 10 s intervals to ensure steady-state inhibition was achieved. The effects of compounds were obtained using 200 ms voltage steps to peak potential from a holding potential of −90 mV. Current–voltage (I–V) relationships were obtained by holding the cells at a potential of −100 mV before applying 50 ms pulses to potentials from −75 to +50 mV every 5 s in 5 mV increments. […]

[2] = target: T2, recombinant hCaV3.2 channels (Homo sapiens, UniProt O95180); assay: Whole-cell patch-clamp (QPatch), CaV3.2; format: cell-based; settings: for extent of block of CaV3.2 whole-cell inward Ca2+ current: QPatch; for IC50: whole-cell current, holding potential −90 mV, n = 3–5
T2 construct: the only CaV3.2-expressing cells described
Description: as §1, §2

[3] = system: MCF-7, T-47D, A549 and HT-29 cells; assay: Cell viability MTT assay, four cancer cell lines (overall); format: cell-based, human; settings: 50 µM, 72 h
Description: Human breast cancer cell line MCF-7 and T-47D, lung cancer cell line A549, and colon cancer cell line HT-29 were cultured under 5% carbon dioxide at 37 °C in DMEM Glutamax (Gibco, Life Technologies) supplemented with 10% (v/v) FBS. They were split in a ratio of 1:3–1:6 (ideally 2–4 × 10,000 cells/cm^2) when they reached 70–80% confluence using 0.25% Trypsin-EDTA. For cell viability MTT assay, cells were seeded into 96-well clear bottom culture plates (Corning, Lowell, MA, USA) at a density of 5 × 10^3 cells/well and settled at 37 °C for 24 h.
Seeded cells were treated with various concentrations of compounds for desired time period (24, 48 and 72 h). After the treatments, the media were removed from each well, and replaced with 25 μL of serum-free media and 25 μL of MTT Reagent (cat. no., ab211091; Abcam, Cambridge, MA, USA). The plate was then incubated at 37 °C for 3 h, and 75 μL of MTT Solvent (cat. no., ab211091; Abcam) was added into each well after incubation. The absorbance was evaluated at 590 nm. Cell-wells treated with 0.1% DMSO were used as positive control and no cell-wells were used as background control.

T2 sequence (O95180 whole entry): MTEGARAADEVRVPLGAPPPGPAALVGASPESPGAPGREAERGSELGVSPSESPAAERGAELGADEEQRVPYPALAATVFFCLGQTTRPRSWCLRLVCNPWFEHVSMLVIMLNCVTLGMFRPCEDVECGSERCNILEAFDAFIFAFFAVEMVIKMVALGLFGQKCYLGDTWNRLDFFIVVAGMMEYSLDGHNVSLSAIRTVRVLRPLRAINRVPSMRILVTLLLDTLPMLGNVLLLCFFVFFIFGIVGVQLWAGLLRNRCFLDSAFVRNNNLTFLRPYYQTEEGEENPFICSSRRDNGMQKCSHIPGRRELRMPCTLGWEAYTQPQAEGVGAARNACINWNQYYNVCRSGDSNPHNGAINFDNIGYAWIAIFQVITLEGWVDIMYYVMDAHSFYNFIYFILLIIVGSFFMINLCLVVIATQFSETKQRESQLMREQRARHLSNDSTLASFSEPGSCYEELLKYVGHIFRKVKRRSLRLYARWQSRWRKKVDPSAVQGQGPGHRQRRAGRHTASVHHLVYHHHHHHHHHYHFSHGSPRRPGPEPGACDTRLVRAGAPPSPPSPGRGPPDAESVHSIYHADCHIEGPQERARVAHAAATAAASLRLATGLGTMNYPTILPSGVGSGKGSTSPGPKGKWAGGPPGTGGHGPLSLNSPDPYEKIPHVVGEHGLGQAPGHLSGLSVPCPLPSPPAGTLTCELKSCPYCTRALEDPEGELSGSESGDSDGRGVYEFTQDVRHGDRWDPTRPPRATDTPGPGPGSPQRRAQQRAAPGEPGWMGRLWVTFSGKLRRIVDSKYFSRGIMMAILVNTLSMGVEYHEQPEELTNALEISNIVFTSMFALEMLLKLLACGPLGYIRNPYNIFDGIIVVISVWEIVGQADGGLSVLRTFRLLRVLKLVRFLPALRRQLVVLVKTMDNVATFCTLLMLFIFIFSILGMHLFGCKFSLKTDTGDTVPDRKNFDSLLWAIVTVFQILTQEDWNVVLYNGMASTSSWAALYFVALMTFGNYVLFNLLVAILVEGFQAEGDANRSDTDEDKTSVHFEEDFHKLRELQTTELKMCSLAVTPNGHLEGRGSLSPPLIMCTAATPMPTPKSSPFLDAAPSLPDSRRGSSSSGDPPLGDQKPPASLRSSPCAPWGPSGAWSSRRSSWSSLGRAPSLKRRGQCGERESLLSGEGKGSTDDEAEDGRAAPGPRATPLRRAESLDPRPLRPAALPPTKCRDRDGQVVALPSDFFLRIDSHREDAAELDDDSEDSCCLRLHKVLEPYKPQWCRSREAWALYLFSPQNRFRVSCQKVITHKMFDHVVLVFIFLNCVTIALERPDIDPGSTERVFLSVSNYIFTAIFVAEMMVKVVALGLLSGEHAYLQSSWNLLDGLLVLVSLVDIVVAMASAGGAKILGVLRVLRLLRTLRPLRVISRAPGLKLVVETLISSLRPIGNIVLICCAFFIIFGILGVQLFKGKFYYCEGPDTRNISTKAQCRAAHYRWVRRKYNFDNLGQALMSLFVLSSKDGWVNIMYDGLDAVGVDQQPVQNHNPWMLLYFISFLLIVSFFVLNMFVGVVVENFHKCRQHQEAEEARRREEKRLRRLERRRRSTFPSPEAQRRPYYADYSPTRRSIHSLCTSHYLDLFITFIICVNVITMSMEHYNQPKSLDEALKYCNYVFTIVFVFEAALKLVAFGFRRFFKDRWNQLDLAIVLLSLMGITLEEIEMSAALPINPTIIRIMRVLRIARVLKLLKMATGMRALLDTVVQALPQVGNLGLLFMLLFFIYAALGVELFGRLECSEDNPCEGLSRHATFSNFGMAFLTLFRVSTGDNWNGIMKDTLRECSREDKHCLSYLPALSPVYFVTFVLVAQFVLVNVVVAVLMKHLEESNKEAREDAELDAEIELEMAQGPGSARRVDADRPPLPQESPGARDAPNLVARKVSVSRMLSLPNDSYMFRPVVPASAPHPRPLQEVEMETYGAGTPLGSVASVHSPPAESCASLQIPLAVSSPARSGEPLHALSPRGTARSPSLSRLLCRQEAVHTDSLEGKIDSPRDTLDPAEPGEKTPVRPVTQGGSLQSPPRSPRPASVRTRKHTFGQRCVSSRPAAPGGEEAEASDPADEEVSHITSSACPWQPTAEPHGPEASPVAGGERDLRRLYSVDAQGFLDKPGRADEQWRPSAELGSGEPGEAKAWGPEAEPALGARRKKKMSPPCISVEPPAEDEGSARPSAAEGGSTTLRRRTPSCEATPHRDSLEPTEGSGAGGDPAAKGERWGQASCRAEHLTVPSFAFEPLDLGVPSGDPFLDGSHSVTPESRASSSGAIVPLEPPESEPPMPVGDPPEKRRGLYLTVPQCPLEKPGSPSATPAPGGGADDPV
T1 sequence (O43497 whole entry): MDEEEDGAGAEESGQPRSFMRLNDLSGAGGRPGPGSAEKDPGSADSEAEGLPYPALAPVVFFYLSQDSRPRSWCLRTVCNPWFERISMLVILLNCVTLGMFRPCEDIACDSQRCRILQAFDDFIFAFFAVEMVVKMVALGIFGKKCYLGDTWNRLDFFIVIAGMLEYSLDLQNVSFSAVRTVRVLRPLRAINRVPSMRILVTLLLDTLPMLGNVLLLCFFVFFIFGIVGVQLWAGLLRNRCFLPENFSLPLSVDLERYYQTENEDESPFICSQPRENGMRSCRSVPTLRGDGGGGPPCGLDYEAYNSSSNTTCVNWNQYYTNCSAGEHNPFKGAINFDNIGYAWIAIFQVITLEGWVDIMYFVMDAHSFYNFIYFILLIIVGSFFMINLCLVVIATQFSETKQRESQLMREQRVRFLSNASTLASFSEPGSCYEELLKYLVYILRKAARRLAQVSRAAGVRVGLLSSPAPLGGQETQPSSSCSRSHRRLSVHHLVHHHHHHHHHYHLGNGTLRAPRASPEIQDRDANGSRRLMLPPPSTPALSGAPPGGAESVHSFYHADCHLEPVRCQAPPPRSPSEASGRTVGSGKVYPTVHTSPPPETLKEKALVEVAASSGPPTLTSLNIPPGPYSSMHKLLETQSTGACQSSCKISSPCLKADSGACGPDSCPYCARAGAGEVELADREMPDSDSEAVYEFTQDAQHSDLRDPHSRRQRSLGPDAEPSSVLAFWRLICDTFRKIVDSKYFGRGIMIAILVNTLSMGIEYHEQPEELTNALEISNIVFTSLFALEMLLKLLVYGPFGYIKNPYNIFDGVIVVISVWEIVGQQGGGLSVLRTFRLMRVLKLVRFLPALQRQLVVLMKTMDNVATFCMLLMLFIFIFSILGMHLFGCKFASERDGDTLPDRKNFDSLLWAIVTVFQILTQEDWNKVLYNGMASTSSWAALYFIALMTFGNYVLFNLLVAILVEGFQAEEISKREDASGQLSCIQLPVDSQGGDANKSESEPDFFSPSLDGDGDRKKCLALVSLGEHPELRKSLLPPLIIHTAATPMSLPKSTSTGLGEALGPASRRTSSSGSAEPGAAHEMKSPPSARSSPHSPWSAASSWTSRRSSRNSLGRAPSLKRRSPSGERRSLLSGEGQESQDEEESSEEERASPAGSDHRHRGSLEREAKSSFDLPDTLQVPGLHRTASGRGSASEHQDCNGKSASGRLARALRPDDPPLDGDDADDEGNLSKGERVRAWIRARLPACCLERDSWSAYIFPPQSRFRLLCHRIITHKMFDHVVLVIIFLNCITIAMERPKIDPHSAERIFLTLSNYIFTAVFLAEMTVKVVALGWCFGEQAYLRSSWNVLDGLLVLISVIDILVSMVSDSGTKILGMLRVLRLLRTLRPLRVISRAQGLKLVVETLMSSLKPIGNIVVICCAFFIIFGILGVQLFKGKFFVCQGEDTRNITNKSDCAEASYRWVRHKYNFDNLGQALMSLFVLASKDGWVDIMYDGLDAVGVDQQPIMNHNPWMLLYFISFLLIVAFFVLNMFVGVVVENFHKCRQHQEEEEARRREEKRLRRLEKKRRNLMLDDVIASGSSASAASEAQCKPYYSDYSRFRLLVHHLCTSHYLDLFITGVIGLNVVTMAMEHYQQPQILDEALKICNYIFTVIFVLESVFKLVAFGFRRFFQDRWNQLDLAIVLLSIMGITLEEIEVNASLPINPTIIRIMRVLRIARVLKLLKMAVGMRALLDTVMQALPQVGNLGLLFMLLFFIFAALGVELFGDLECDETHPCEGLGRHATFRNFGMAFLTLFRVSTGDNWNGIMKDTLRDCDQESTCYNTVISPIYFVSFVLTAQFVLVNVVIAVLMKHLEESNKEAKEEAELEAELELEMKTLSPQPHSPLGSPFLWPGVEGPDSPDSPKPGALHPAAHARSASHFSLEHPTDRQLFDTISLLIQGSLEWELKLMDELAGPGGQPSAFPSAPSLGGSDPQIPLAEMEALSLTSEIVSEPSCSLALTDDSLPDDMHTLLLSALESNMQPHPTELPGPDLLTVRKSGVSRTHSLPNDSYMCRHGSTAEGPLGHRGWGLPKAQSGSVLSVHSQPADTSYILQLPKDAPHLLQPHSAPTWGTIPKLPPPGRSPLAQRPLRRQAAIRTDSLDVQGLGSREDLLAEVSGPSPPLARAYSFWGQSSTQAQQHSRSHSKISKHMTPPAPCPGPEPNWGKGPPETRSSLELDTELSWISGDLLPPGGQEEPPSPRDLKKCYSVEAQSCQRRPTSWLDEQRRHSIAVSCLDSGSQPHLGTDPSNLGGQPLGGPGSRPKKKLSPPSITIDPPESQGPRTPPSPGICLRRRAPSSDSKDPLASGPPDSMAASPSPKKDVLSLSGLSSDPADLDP

SMILES | IC50 [1] [µM] | extent of block of CaV3.2 whole-cell inward Ca2+ current [2] | IC50 [2] [µM] | effect on cancer cell viability [3] | effect of low concentrations on CaV3.1 channel current ([1]; QPatch, 49 nM–3.1 µM) | shift in the I–V relationship of CaV3.1 ([1]; QPatch, 2.5 µM and 15 µM)
O=C(c1cn(Cc2ccccc2)c2ccccc12)c1cn(Cc2ccccc2)c2ccccc12 [IX, bis(1-benzyl-1H-indol-3-yl)methanone] | 47.4 ± 11.7 | partially blocked; also recorded: only partial inhibition | 2.97 ± 0.29 | did not affect cancer cell viability | – | –
O=C(c1c[nH]c2ccccc12)c1c[nH]c2ccccc12 [DIM-one, 3,3′-diindolylmethanone] | 1.53 | poor inhibition | ~50 | – | – | –
c1ccc2c(Cc3c[nH]c4ccccc34)c[nH]c2c1 [DIM, 3,3′-diindolylmethane, reference compound] | 8.32 ± 1.53 | – | 21.1 ± 1.19 | – | weakly enhanced | not accompanied by shifts
